# Source: US20220213092A1, “BICYCLIC PYRAZOLE BRUTON'S TYROSINE KINASE INHIBITORS” (AbbVie Inc., priority 2020, published 2022)
# Where two headings read alike, the source gives them in different places.
# Key:
# Type in all cases: biochemical
# TXK = biological target: T1, TXK (Homo sapiens, UniProt P42681); test: Other kinase MSA: TXK
# T1 sequence (P42681 1-527): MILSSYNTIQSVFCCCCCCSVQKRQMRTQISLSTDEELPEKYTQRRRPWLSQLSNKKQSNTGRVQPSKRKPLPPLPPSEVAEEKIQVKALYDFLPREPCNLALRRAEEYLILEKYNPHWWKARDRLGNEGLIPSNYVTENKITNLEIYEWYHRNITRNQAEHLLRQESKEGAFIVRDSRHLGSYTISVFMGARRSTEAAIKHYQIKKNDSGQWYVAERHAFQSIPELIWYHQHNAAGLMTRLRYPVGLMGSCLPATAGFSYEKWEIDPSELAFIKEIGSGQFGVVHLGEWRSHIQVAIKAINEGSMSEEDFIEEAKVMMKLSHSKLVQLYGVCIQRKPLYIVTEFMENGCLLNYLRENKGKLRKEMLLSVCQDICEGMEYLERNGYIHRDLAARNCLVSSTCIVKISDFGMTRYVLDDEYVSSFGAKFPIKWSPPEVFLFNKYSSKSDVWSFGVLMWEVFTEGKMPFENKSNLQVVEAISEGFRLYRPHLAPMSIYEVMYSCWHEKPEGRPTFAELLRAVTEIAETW
# Protocol: (§1) Kinase activity, unless otherwise indicated, was measured in vitro using an electrophoretic mobility shift assay (MSA). The phosphorylation of a peptide substrate by BTK and other kinases was measured. The kinase reactions were assembled in a total volume of 25 μL per well in 384 well plates. The following was added to each well: compound buffer (or control); enzyme buffer; and substrate buffer, as further described below. […]
# (§2) Enzyme and compound/inhibitor were optionally pre-incubated. […] The kinase activity for the kinases in Table 3 were measured at 3 hours incubation time, except that in the case of MAP2K1 and MAP2K2 assay, pre-activation of ERK was done for 30 min with 6 μM of ATP, and then the detection of activated ERK in the presence of compounds was done after 60 minutes of incubation.
# (§3) The terminated reactions were analyzed using a 12 channel LABCHIP® 3000 microfluidic detection instrument (available from Caliper Life Sciences, Waltham, Mass.). […] As substrate and product peptides were separated, two peaks of fluorescence were observed. Change in the relative fluorescence intensity of the substrate and product peaks was the parameter measured, reflecting enzyme activity. […] Capillary electrophoregrams (RDA acquisition files) were analyzed using HTS Well Analyzer software (available from Caliper Life Sciences, Waltham, Mass.). […]
# TEC = biological target: T2, TEC (Homo sapiens, UniProt P42680); test: Other kinase MSA: TEC
# T2 sequence (P42680 1-631): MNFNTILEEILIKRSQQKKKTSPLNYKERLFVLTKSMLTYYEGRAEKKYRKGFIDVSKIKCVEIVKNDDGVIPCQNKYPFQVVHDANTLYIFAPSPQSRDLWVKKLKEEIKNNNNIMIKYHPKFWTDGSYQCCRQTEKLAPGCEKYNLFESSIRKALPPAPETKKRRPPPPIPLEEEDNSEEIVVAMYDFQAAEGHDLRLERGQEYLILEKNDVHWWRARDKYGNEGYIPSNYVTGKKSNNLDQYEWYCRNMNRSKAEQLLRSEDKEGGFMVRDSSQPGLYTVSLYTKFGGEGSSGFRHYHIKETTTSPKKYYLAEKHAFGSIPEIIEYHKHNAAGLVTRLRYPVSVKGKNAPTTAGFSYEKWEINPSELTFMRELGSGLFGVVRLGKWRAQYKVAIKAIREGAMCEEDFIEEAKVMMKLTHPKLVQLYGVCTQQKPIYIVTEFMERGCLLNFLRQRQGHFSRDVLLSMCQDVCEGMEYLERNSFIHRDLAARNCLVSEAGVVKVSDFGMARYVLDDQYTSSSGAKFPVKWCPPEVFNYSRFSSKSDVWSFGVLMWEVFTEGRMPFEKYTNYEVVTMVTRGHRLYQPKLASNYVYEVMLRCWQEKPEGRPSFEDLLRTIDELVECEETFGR
# Protocol: as §1, §2, §3
# MAP2K2 = MAP2K2 (Homo sapiens, UniProt P36507); test: Other kinase MSA: MAP2K2; details: 30 μM ATP, ERKtide substrate; pre-activation of ERK 30 min, detection after 60 minutes; read-out: IC50, Enzyme MAP2K2
# MAP2K2, sequence (P36507 whole entry, species assumed): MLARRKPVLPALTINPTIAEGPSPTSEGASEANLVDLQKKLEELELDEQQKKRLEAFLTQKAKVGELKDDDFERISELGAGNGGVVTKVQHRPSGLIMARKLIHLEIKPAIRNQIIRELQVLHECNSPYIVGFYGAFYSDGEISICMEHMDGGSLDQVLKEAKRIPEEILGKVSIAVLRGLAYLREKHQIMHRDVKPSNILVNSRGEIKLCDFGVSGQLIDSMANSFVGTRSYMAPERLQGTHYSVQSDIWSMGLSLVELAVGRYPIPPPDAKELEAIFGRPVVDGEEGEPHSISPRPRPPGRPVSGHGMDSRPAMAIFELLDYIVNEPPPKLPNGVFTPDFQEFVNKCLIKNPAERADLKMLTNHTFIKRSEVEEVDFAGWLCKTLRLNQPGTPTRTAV
# Protocol: as §1, §2, §3
Structure (SMILES),"IC50 (TXK; 100 μM ATP, SRCtide substrate, 3 hours, read-out: IC50, Enzyme TXK) [nM]","IC50 (TEC; 50 μM ATP, SRCtide substrate, 3 hours, read-out: IC50, Enzyme TEC) [nM]",IC50 (MAP2K2) [µM],IC50 (TXK) [nM],IC50 (TEC) [nM]
"C=CC(=O)N1CCC([C@@H]2CCNc3c(C(N)=O)c(-c4ccc(Oc5ccccc5)cc4)nn32)CC1 [Compound A, reference compound]",1.9,0.8,0.075,,
"C=CC(=O)N1CCN([C@@H]2CCNc3c2nn(-c2ccc(Oc4ccccc4)cc2)c3C(N)=O)CC1 [Example 6, (7R)-2-(4-phenoxyphenyl)-7-[4-(prop-2-enoyl)piperazin-1-yl]-4,5,6,7-tetrahydro-2H-pyrazolo[4,3-b]pyridine-3-carboxamide]",,,7.8,222,14.7
